The results in this text go back to ChEMBL document CHEMBL3112492, “Antiprotozoan lead discovery by aligning dry and wet screening: prediction, synthesis, and biological assay of novel quinoxalinones” (Bioorg Med Chem, 2014).

The test system of data set [1] is Toxoplasma gondii. The experiment in a line: Antiprotozoal activity against tachyzoite stage of Toxoplasma gondii RH assessed as viability at 500 uM after 4 hrs by trypan blue exclusion assay relative to control. It is filed as functional.
In data set [2] the test system is Toxoplasma gondii. Nature of the data set: Antiprotozoal activity against tachyzoite stage of Toxoplasma gondii RH assessed as viability at 1 mM after 4 hrs by trypan blue exclusion assay relative to control. It is filed as functional.
The subject of data set [3] is J774. The experiment in a line: Cytotoxicity against mouse J774 cells at 1 ug/mL after 24 hrs by MTT assay. In kind it is cell-based. The note with it: j774, 24 h. (In general: Tetrazolium dyes change colour on reduction, which living cells bring about.)
Data set [4] deals with J774. The experiment in a line: Cytotoxicity against mouse J774 cells at 10 ug/mL after 24 hrs by MTT assay. In kind it is cell-based. The note with it: j774, 24 h.
A further data set concerns Leishmania braziliensis. Nature of the data set: Antiprotozoal activity against metacyclic promastigote stage of Leishmania braziliensis MHOM/PE/95/LQ2 assessed as growth inhibition after 72 hrs by Alamar Blue assay. It is filed as functional, organism-based. For orientation: The colour change of resazurin is a common sign of viable cells or microbes.
Data set [5] relates to Trichomonas vaginalis. The experiment in a line: Trichomonastatic activity against Trichomonas vaginalis JH31A at 100 ug/ml after 48 hrs by Neubauer chamber analysis relative to control. It is filed as functional.
A short description of data set [6]: Inhibition of ferriprotoporphyrin-9 biocrystallization by micro-ELISA. Background: An ELISA detects its analyte on a solid surface through an enzyme-linked reagent.
The subject of data set [7] is Trichomonas vaginalis. The experiment in a line: Trichomonastatic activity against Trichomonas vaginalis JH31A at 10 ug/ml after 24 hrs by Neubauer chamber analysis relative to control. It is filed as functional.
Data set [8] concerns Trichomonas vaginalis. The experiment in a line: Trichomonastatic activity against Trichomonas vaginalis JH31A at 1 ug/ml after 24 hrs by Neubauer chamber analysis relative to control. In kind it is functional.
A further data set has as its system Acanthamoeba castellanii. Nature of the data set: Antiprotozoal activity against trophozoite stage of Acanthamoeba castellanii Neff ATCC 30010 after 72 to 120 hrs by Alamar Blue assay. It is filed as functional. The note with it: Acanthamoeba castellanii str. Neff.
Data set [9] concerns J774. Nature of the data set: Cytotoxicity against mouse J774 cells at 100 ug/mL after 24 hrs by MTT assay. The note with it: j774, 24 h. In kind it is cell-based.
Data set [10] concerns Trypanosoma cruzi. The experiment in a line: Trypanocidal activity against epimastigote stage of Trypanosoma cruzi CL Brener at 1 ug/mL after 72 hrs by beta-galactosidase reporter gene assay relative to control. In kind it is functional.
Another data set deals with Plasmodium falciparum. Nature of the data set: Antimalarial activity against intraerythrocytic asexual stage of Plasmodium falciparum 3D7 assessed as inhibition of [G-3H]-hypoxanthine uptake by semiautomated microdilution method. In kind it is functional, organism-based.
In data set [11] the test system is Trypanosoma cruzi. Nature of the data set: Trypanocidal activity against epimastigote stage of Trypanosoma cruzi CL Brener at 10 ug/mL after 72 hrs by beta-galactosidase reporter gene assay relative to control. In kind it is functional.
For data set [12], the system named is Toxoplasma gondii. Nature of the data set: Antiprotozoal activity against tachyzoite stage of Toxoplasma gondii RH assessed as extrusion of cytoplasmic content by light microscopic analysis. In kind it is functional, organism-based.
For data set [13], the system named is Trichomonas vaginalis. Nature of the data set: Trichomonastatic activity against Trichomonas vaginalis JH31A at 100 ug/ml after 24 hrs by Neubauer chamber analysis relative to control. In kind it is functional.
Data set [14] concerns Trypanosoma cruzi. Nature of the data set: Trypanocidal activity against epimastigote stage of Trypanosoma cruzi CL Brener at 100 ug/mL after 72 hrs by beta-galactosidase reporter gene assay relative to control. It is filed as functional.
For data set [15], the system named is Toxoplasma gondii. The experiment in a line: Antiprotozoal activity against tachyzoite stage of Toxoplasma gondii RH assessed as viability at 200 uM after 4 hrs by trypan blue exclusion assay relative to control. In kind it is functional.
Data set [16] deals with Toxoplasma gondii. The experiment in a line: Antiprotozoal activity against tachyzoite stage of Toxoplasma gondii RH assessed as viability at 100 uM after 4 hrs by trypan blue exclusion assay relative to control. It is filed as functional.
For data set [17], the system named is Trichomonas vaginalis. The experiment in a line: Trichomonastatic activity against Trichomonas vaginalis JH31A at 10 ug/ml after 48 hrs by Neubauer chamber analysis relative to control. In kind it is functional.
Data set [18] has as its system Trichomonas vaginalis. Nature of the data set: Trichomonastatic activity against Trichomonas vaginalis JH31A at 1 ug/ml after 48 hrs by Neubauer chamber analysis relative to control. It is filed as functional.
The subject of data set [19] is Trichomonas vaginalis. The experiment in a line: Trichomonacidal activity against Trichomonas vaginalis JH31A at 1 ug/ml after 48 hrs by Neubauer chamber analysis relative to control. In kind it is functional.
Data set [20] relates to Trichomonas vaginalis. The experiment in a line: Trichomonacidal activity against Trichomonas vaginalis JH31A at 2 ug/ml after 48 hrs by Neubauer chamber analysis relative to control. It is filed as functional.
The subject of data set [21] is Trichomonas vaginalis. Nature of the data set: Trichomonacidal activity against Trichomonas vaginalis JH31A at 0.5 ug/ml after 48 hrs by Neubauer chamber analysis relative to control. It is filed as functional.
Data set [22] concerns Trichomonas vaginalis. Nature of the data set: Trichomonacidal activity against Trichomonas vaginalis JH31A at 1 ug/ml after 24 hrs by Neubauer chamber analysis relative to control. In kind it is functional.
The subject of data set [23] is Trichomonas vaginalis. Nature of the data set: Trichomonacidal activity against Trichomonas vaginalis JH31A at 0.5 ug/ml after 24 hrs by Neubauer chamber analysis relative to control. In kind it is functional.
Data set [24] relates to Trichomonas vaginalis. The experiment in a line: Trichomonacidal activity against Trichomonas vaginalis JH31A at 2 ug/ml after 24 hrs by Neubauer chamber analysis relative to control. In kind it is functional.

Active and inactive are the calls of the source. No cut-off for these calls is given here.

Broadly, the IC50 is the concentration at which inhibition is half-maximal. For `Br.O=C1CN(CCCCCN2CCCC2)c2ccc([N+](=O)[O-])cc2N1`, the Activity in the data set on Toxoplasma gondii [1] is 0%; with Toxoplasma gondii [2], 0%; in the data set with J774 [3], 0%; with J774 [4], 0%; with Trichomonas vaginalis [5] it was 34.26%; with Trichomonas vaginalis [7], 21.02%. Further, the Activity is 3.53% in the data set with Trichomonas vaginalis [8]; 0% in the data set with J774 [9]; 4.38% in the data set with Trypanosoma cruzi [10]; 5.35% in the data set on Trypanosoma cruzi [11]; 75.61% in the data set with Trichomonas vaginalis [13]; 83.54% in the data set with Trypanosoma cruzi [14]. Moreover, the Activity in the data set on Toxoplasma gondii [15] is given as 85%; in the data set with Toxoplasma gondii [16], 91%; with Trichomonas vaginalis [17], 1.64%; in the data set with Trichomonas vaginalis [18], 0%. The “growth inhibition (GI)” value in the data set on Leishmania braziliensis is “inactive”. In addition, the figures for the concentration for half-maximal inhibition (IC50) (in data set [6]; with Plasmodium falciparum) were > 2000 µg/mL and > 10 µg/mL, respectively. Further, the outcome in the data set with Acanthamoeba castellanii was inactive. In the data set with Toxoplasma gondii [12], the outcome was Active.
Consider `Br.CN(C)CCCCCN1CC(=O)Nc2cc([N+](=O)[O-])ccc21`, for which the Activity amounted to 93% in the data set on Toxoplasma gondii [1]; 73% in the data set on Toxoplasma gondii [2]; 28.33% in the data set on Trichomonas vaginalis [5]; 11.43% with Trichomonas vaginalis [7]; 1.22% in the data set on Trichomonas vaginalis [8]; 29.39% in the data set with Trichomonas vaginalis [13]. The Activity in the data set on Toxoplasma gondii [15] was found to be 96%; in the data set on Toxoplasma gondii [16], 95%; in the data set on Trichomonas vaginalis [17], 14.68%; in the data set on Trichomonas vaginalis [18], 0%. Further, in the data set with Leishmania braziliensis, the “growth inhibition (GI)” value is “inactive”. For the same molecule, the half-inhibitory concentration (IC50) was > 2000 µg/mL in data set [6] and > 10 µg/mL with Plasmodium falciparum. Besides, the outcome in the data set on Acanthamoeba castellanii was inactive.
Turning to `Cc1ncc([N+](=O)[O-])n1CCO` [METRONIDAZOLE], the Activity in the data set on Trichomonas vaginalis [19] was found to be 100%; in the data set on Trichomonas vaginalis [20], 100%; with Trichomonas vaginalis [21] it was 99.5%; in the data set with Trichomonas vaginalis [22], 99.1%; with Trichomonas vaginalis [23], 98%; with Trichomonas vaginalis [24], 100%.
